IC50 data for 23 compounds are collected here from patent US20150218141A1, “SUBSTITUTED CARBAMATE COMPOUNDS” (HOFFMANN-LA ROCHE INC, priority 2012, published 2015).

Molecules are shown by their SMILES. Where a name gives a salt, the structure may show the parent alone.

The target of this experiment is T1, hTRPA1 (Homo sapiens, UniProt O75762).
T1 construct: host or cells: CHO-K1 Tet-On, Clone 20 (Chinese Hamster Ovary cells, inducible expression)
T1 sequence (O75762 whole entry): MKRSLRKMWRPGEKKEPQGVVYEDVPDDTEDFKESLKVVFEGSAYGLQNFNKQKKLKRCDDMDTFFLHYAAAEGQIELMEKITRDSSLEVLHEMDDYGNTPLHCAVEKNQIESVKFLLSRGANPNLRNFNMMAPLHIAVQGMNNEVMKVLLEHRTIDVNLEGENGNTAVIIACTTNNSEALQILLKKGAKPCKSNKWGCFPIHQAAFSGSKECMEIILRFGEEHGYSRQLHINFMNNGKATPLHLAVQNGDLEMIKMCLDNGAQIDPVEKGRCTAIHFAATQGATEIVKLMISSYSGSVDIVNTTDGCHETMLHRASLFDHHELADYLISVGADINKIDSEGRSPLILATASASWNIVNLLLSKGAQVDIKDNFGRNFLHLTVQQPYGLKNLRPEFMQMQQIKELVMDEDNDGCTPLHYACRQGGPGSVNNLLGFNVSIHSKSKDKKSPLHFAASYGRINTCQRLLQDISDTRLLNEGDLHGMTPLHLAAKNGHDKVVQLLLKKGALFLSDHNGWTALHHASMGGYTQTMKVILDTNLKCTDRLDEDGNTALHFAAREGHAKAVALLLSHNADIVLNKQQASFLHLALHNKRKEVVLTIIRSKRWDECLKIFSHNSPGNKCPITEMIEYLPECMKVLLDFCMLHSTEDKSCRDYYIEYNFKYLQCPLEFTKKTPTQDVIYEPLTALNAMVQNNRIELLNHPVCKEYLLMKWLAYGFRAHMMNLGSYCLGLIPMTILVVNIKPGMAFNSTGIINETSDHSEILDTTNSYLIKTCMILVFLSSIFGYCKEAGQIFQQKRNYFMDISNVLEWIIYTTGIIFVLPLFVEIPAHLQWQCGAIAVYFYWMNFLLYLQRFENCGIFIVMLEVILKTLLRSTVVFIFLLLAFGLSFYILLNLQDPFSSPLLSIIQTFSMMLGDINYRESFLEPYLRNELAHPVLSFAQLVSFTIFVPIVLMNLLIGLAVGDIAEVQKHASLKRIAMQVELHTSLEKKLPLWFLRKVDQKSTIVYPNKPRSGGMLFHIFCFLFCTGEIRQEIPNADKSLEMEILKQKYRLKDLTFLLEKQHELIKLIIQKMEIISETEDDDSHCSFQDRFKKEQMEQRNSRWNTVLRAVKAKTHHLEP
Nature of the experiment: IC50 determination, dose response calcium flux (FLIPR) assay, ChanTest hTRPA1-CHO stably transfected cell line. The experiment is classed as cell-based. Conditions: CHO-K1 Tet-On hTRPA1 cells, 30' preincubation, agonist cinnamaldehyde final 100 uM. The method, then: IC50 Determination of Exemplified Compounds Dose Response Assay: ChanTest hTRPA1-CHO Stably Transfected Cell Line
CHO-K1 Tet-On_HOMSA_TRPA1_Clone—20
Growth Media for CHO-K1 Tet-On_HOMSA_TRPA1_Clone—20 • Ham's F-12 with 10% tetracycline-free FBS • 1× penicillin-streptomycin • 1× glutamax • 0.01 mg/ml Blasticidin • 0.40 mg/ml Zeocin • The cell line doubling rate was ˜15 hours. […] Experiments were run at 24 hours post induction.
Plating Conditions CHOK1/TRPA1 Cells: • Harvested cells with 0.025% trypsin/EDTA. • Resuspended cells in growth media without selection antibiotics. • Measured cell density and diluted to 2.4×10^5 cells/ml in media containing 1 ug/ml Doxycycline Plate 25 ul/well into 384 well black/clear tissue culture-treated plates. • Incubated overnight at 37° C.
Reagents: • Replacement Buffer: Hank's Balanced Salt Solution, 20 mM HEPES along with 0.005% BSA and 2× Probenecid • Dye Loading Buffer: Cal-3 NW Calcium dye was prepared by dissolving the contents of one vial with […] Hank's Balanced Salt Solution containing 20 mM HEPES. • Control compounds for CHOK1/TRPA1 cells: AP-18, stock 10 mM, prepare 3.5× compound dilution in a Compound Buffer (HBSS/20 mM HEPES/0.005% BSA)—final concentration 10 uM.
Preparation of Cinnamaldehyde (Agonist Addition):
• Specific gravity=1.046 gm/cc • 1.32 gm/1.046 gm/cc=1.26 ml of stock • Add 1.74 ml DMSO=3.3 M stock • Working solution 4.5× (final 100 uM in Compound Buffer: HBSS/20 mM HEPES/0.005% BSA)
Compounds dilutions were prepared from 5 or 10 mM stock (100% DMSO): • Adjustments of volumes and concentrations were made at time of titration to reflect desired final assay concentrations. • Compounds were tested at either 20 μM three folds dilution 11 steps out or 30 μM two folds dilution 11 steps out. • 3 μl of diluted compound were transferred into Weidmann 384-well plate in duplicates side-by-side.
Compound plates were resuspended with 100 ul of HBSS/20 mM HEPES/0.005% BSA buffer (Compound Buffer):
Growth media was removed from the cell plates (20 ul) and 20 ul of the Replacement Buffer was added followed by addition of 25 ul of diluted dye. All three steps were performed using a Plate Washer BioTek 407. The plates were then incubated for 30′ at RT.
After incubation, both the cell and compound plates were brought to the FLIPR and 20 ul of the diluted compounds/antagonist/bk were transferred to the cell plates by the FLIPR. Plates were then incubated for 30′ at room temperature. After 30′ incubation, plates were returned to the FLIPR and 20 ul of 4.5× Cinnamaldehyde was added to the cell plates. During the compound addition as well as agonist addition, fluorescence readings were taken simultaneously from all 384 wells of the cell plate every 1.5 seconds. Five readings were taken to establish a stable baseline, then 20 ul of sample was rapidly (30 ul/sec) and simultaneously added to each well of the cell plate. The fluorescence was continuously monitored before, during and after sample/agonist addition for a total elapsed time of 100 seconds (compound addition) and 120 seconds (agonist addition). Responses (increase in peak fluorescence) in each well following agonist addition was determined. The initial fluorescence reading from each well, prior to ligand stimulation, was used a zero baseline value for the data from that well.
One may read the IC50 as the concentration needed to halve the response being measured. For `O=C(Nc1ccc(Cl)cc1)O[C@@H](CN1CCCC(c2cccc(C(F)(F)F)c2)C1)C(F)(F)F` (stereo partly drawn) [Example 29, (4-Chlorophenyl)-carbamic acid (S)-2,2,2-trifluoro-1-[3-(3-trifluoromethylphenyl)-piperidin-1-ylmethyl]-ethyl ester hydrochloride], the IC50 turned out to be 35.4 nM.
Next, `O=C(Nc1ccc(Cl)cc1)OC(CN1CCCC(C2CCCCC2)C1)C(F)(F)F` (centres unmarked) [Example 18, (4-Chlorophenyl)-carbamic acid 1-(3-cyclohexylpiperidin-1-ylmethyl)-2,2,2-trifluoroethyl ester]: 883 nM; `COc1cccc(OC2CCCN(C[C@H](OC(=O)Nc3ccc(Cl)cc3)C(F)(F)F)C2)c1` (stereo partly drawn) [Example 49, (4-Chlorophenyl)-carbamic acid (S)-1-[3-(3-methoxyphenoxy)-piperidin-1-ylmethyl]-2,2,2-trifluoroethyl ester hydrochloride]: 408 nM.
In the case of `O=C(Nc1ccc(Cl)cc1)O[C@@H](CN1CCC[C@H](Oc2ccc(Cl)cc2)C1)C(F)(F)F` [Example 52a, (4-Chlorophenyl)-carbamic acid (S)-1-[(S)-3-(4-chlorophenoxy)-piperidin-1-ylmethyl]-2,2,2-trifluoroethyl ester hydrochloride], the IC50 worked out at 114 nM.
The same measure for `O=C(Nc1ccc(Cl)cc1)O[C@@H](CN1CCCC(COc2ccc(F)cc2)C1)C(F)(F)F` (stereo partly drawn) [Example 51, (4-Chlorophenyl)-carbamic acid (S)-2,2,2-trifluoro-1-[3-(4-fluorophenoxymethyl)-piperidin-1-ylmethyl]-ethyl ester hydrochloride]: 178 nM; for `N#CC1CCCN(CC(OC(=O)Nc2ccc(Cl)cc2)C(F)(F)F)C1` (centres unmarked) [Example 13, (4-Chlorophenyl)-carbamic acid 1-(3-cyanopiperidin-1-ylmethyl)-2,2,2-trifluoroethyl ester]: 277 nM; for `O=C(Nc1ccc(Cl)cc1)O[C@@H](CN1CCCC(Sc2ccccc2)C1)C(F)(F)F` (stereo partly drawn) [Example 44, (4-Chlorophenyl)-carbamic acid (S)-2,2,2-trifluoro-1-(3-phenylsulfanyl-piperidin-1-ylmethyl)-ethyl ester hydrochloride]: 172 nM.
The same measure for `CCC1CCCN(CC(OC(=O)Nc2ccc(Cl)cc2)C(F)(F)F)C1` (centres unmarked) [Example 17, (4-Chlorophenyl)-carbamic acid 1-(3-ethylpiperidin-1-ylmethyl)-2,2,2-trifluoroethyl ester]: 900 nM; for `O=C(Nc1ccc(Cl)cn1)O[C@@H](CN1CCC[C@H](c2cccc(C(F)(F)F)c2)C1)C(F)(F)F` [Example 58, (5-Chloropyridin-2-yl)-carbamic acid (S)-2,2,2-trifluoro-1-[(R)-3-(3-trifluoromethyl-phenyl)-piperidin-1-ylmethyl]-ethyl ester hydrochloride]: 174 nM; for `COC1CCCN(CC(OC(=O)Nc2ccc(Cl)cc2)C(F)(F)F)C1` (centres unmarked) [Example 16, (4-Chlorophenyl)-carbamic acid 2,2,2-trifluoro-1-(3-methoxypiperidin-1-ylmethyl)-ethyl ester]: 4160 nM.
Next, `N#Cc1ccc(OC2CCCN(C[C@H](OC(=O)Nc3ccc(Cl)cc3)C(F)(F)F)C2)cc1` (stereo partly drawn) [Example 46, (4-Chlorophenyl)-carbamic acid (S)-1-[3-(4-cyanophenoxy)-piperidin-1-ylmethyl]-2,2,2-trifluoroethyl ester hydrochloride]: 411 nM.
Turning to `O=C(Nc1ccc(Cl)cc1)O[C@@H](CN1CCC[C@@H](Cc2ccccc2)C1)C(F)(F)F` (single isomer, unassigned) [Example 10], the IC50 is 1340 nM.
Next, `O=C(Nc1ccc(Cl)cc1)O[C@@H](CN1CCCC(Oc2ccc(F)cc2)C1)C(F)(F)F` (stereo partly drawn) [Example 48, (4-Chlorophenyl)-carbamic acid (S)-1-[3-(4-fluorophenoxy)-piperidin-1-ylmethyl]-2,2,2-trifluoroethyl ester hydrochloride]: 147 nM; `O=C(Nc1ccc(Cl)cc1)O[C@@H](CN1CCCC(OCc2cccnc2)C1)C(F)(F)F` (stereo partly drawn) [Example 55, (4-Chlorophenyl)-carbamic acid (S)-2,2,2-trifluoro-1-[3-(pyridin-3-ylmethoxy)-piperidin-1-ylmethyl]-ethyl ester hydrochloride]: 803 nM.
`COc1cc(OC)cc(C2CCCN(C[C@H](OC(=O)Nc3ccc(Cl)cc3)C(F)(F)F)C2)c1` (stereo partly drawn) [Example 21, (4-Chlorophenyl)-carbamic acid (S)-1-[3-(3,5-dimethoxyphenyl)-piperidin-1-ylmethyl]-2,2,2-trifluoroethyl ester]: the IC50 is 203 nM.
Turning to `O=C(Nc1ccc(Cl)cc1)O[C@@H](CN1CCC[C@@H](c2cc(C(F)(F)F)cc(C(F)(F)F)c2)C1)C(F)(F)F` (single isomer, unassigned) [Example 24], the IC50 is 312 nM.
As to `COc1cc([C@H]2CCCN(C[C@H](OC(=O)Nc3ccc(Cl)cc3)C(F)(F)F)C2)ccc1F` [Example 32, (4-Chloro-phenyl)-carbamic acid (S)-2,2,2-trifluoro-1-[(R)-3-(4-fluoro-3-methoxy-phenyl)-piperidin-1-ylmethyl]-ethyl ester hydrochloride], the IC50 was determined as 113 nM.
Next, `O=C(Nc1ccc(Cl)cc1)O[C@H](CN1CCC[C@H](c2ccccc2)C1)C(F)(F)F` [Example 7, (4-Chlorophenyl)-carbamic acid (R)-2,2,2-trifluoro-1-((R)-3-phenylpiperidin-1-ylmethyl)-ethyl ester hydrochloride]: 6400 nM.
`O=C(Nc1ccc(Cl)cc1)O[C@@H](CN1CCCC(Oc2cccc(OC(F)(F)F)c2)C1)C(F)(F)F` (stereo partly drawn) [Example 50, (4-Chlorophenyl)-carbamic acid (S)-2,2,2-trifluoro-1-[3-(3-trifluoromethoxyphenoxyl)piperidin-1-ylmethyl]-ethyl ester hydrochloride]: the IC50 was determined as 55.1 nM.
As for `COc1cccc(CC2CCCN(C[C@H](OC(=O)Nc3ccc(Cl)cc3)C(F)(F)F)C2)c1` (stereo partly drawn) [Example 12, (4-Chlorophenyl)-carbamic acid (S)-2,2,2-trifluoro-1-[3-(3-methoxybenzyl)-piperidin-1-ylmethyl]-ethyl ester hydrochloride salt (1:1)], the IC50 was 550 nM.
With `O=C(Nc1ccc(Cl)cc1)O[C@@H](CN1CCC[C@H](c2ccccc2)C1)C(F)(F)F` [Example 5, (4-Chlorophenyl)-carbamic acid (S)-2,2,2-trifluoro-1-((R)-3-phenylpiperidin-1-ylmethyl)-ethyl ester hydrochloride], the IC50 was 333 nM.
Regarding `COc1cccc([C@@H]2CCCN(C[C@H](OC(=O)Nc3ccc(Cl)cc3)C(F)(F)F)C2)c1` [Example 4, (4-Chlorophenyl)-carbamic acid (S)-2,2,2-trifluoro-1-[(S)-3-(3-methoxyphenyl)-piperidin-1-ylmethyl]-ethyl ester hydrochloride], the IC50 worked out at 7700 nM.
The same measure for `COCCOc1cc(C2CCCN(C[C@H](OC(=O)Nc3ccc(Cl)cc3)C(F)(F)F)C2)ccc1F` (stereo partly drawn) [Example 34, (4-Chlorophenyl)-carbamic acid (S)-2,2,2-trifluoro-1-{3-[4-fluoro-3-(2-methoxyethoxy)-phenyl]-piperidin-1-ylmethyl}-ethyl ester]: 339 nM.
